The text below walks through data of US20230009323A1, “COMPOUNDS AND METHODS FOR THE TREATMENT OF CRYPTOSPORIDIOSIS” (The Broad Institute, Inc., priority 2019, published 2023).

Each structure is given as a SMILES string. Entries after “also recorded” stand apart in the source; their conditions may differ. Where two headings read alike, the source gives them in different places.

Data set [1] concerns C. parvum parental WT (Bunchgrass). Briefly: In vitro drug susceptibility in HCT-8 cells, luminescence, parent strain. The class given is cell-based. The following applies: Cryptosporidium parvum; 48 h, HCT-8, luciferase activity. As to the method:
(§1) The in vitro drug susceptibility assay using transgenic parasites expressing Nluc was performed as described in Vinyak et al. Briefly, host intestinal epithelial adenocarcinoma (HCT-8) cells grown in 96-well plates were infected with purified transgenic Nluc-expressing oocysts (1,000 oocysts per well) and incubated with different concentrations of Compound 11 for 48 hours. Culture supernatant was discarded from the wells after 48 hours, and 200 μl of NanoGlo lysis buffer containing 1:50 of NanoGlo substrate (Promega) was added to the wells. Lysates were transferred to white 96-well plates and luminescence was measured on a Glomax luminescence reader (Promega). EC50 values were calculated in GraphPad Prism software v7.
(§2) Oocysts from the mutant (mut482V) and wild type (wtL482) transgenic lines were purified as well as the parent strain (Bunchgrass) used to generate the transgenics. Sporozoites were excised from these oocysts and used to infect 96 well format HCT-8 cultures to perform in vitro drug susceptibility assays. Cultures were incubated for 48 hours in the presence of varying concentrations of Compound 11 and parasite growth was measured by establishing whole well luciferase activity to calculate EC50 values for each strain.

Data set [2] relates to C. parvum. In words: NOD SCID gamma mouse model of established cryptosporidiosis, fecal oocyst shedding by qPCR. The data set is classed as in vivo, NOD SCID gamma mice. From the text:
FIG. 4A is a schematic of NOD SCID gamma (NSG) mouse model of established intestinal cryptosporidiosis. Intestinal C. parvum infection was established by oral gavage of ˜10^5 oocysts either 7 days (FIGS. 4B and C) or 14 days (FIG. 4D) prior to oral treatment with bicyclic azetidines, vehicle, or paromomycin (positive control). All data are the mean and SEM (n=4 mice per experimental group) of parasite shedding per mg of feces measured by qPCR with results for individual mice shown as superimposed data points. Data points for which no parasite DNA was detected are shown at the qPCR assay limit of detection (0.1 oocysts per mg feces).
NOD scid gamma mice (NOD.Cg-Prkdcscid Il2rgtmlWjl/Szj; Jackson Laboratory, Bar Harbor, Me.) (NSG) were used to model established Cryptosporidium infection. All NSG mouse studies were performed in compliance with animal care guidelines and with approval by the University of Vermont Institutional Animal Care and Use Committee. Mice were acquired at three to four weeks of age, and acclimatized for one week prior to infection by oral gavage of ˜10^5 C. parvum Iowa isolate (Bunch Grass Farms) oocysts. They were then treated at the specified times and dosages with each compound dissolved in 0.5% hydroxypropylmethyl cellulose, 0.5% Tween 80 (v/v) plus 5% DMSO.
This cryptosporidiosis infection model used 3-4 week old, freshly weaned, NOD SCID gamma mice orally infected with C. parvum oocysts (˜1×10^5). The infection was monitored by qPCR of feces with primers specific for C. parvum and data are shown as number of oocysts milligram^−1 of feces. Six days following infection and upon confirmation of parasite shedding by qPCR, the three compounds, negative and positive control were orally administered at 50 mg·kg^−1 (body weight) every 24 h for 4 days. (FIGS. 4A-D). […] We then performed a dose-ranging study with Compound 11 using the same immunocompromised mouse model and dosing regimens of 5, 20 and 40 mg·kg^−1 every 24 h for 4 days or 10 mg·kg^−1 every 24 h for 7 days. Mice were monitored for an additional 14 days for relapse of infection.

Data set [3] concerns C. parvum Iowa isolate (Bunch Grass Farm). Briefly: C. parvum Iowa isolate (Bunch Grass Farm) growth in HCT-8 cells, high-content microscopy. The class given is cell-based. The following applies: Cryptosporidium parvum. As to the method: A high-content microscopy assay was used to measure activity of compounds against C. parvum grown in the human adenocarcinoma cell line HCT-8 (ATCC) as disclosed in Bessoff, K., et al., Antimicrobial agents and chemotherapy 57, 1804-1814, doi:10.1128/AAC.02460-12 (2013), hereby incorporated by reference in its entirety. HCT-8 cells were cultured in 384-well clear-bottomed plates in 50 μL per well of RPMI 1640 medium ([…]), 120 U·mL^−1 penicillin, and 120 μg·mL^−1 streptomycin (ATCC) at 37° C. under 5% CO2. For compound screening and follow-up SAR studies, confluent cell monolayers were infected with C. parvum Iowa isolate oocysts [Bunch Grass Farm (Deary, Id.); ˜5,500 oocysts per well] after inducing excystation by treatment for 10 min at 37° C. with 10 mM HCl and then 10 min at 16° C. in 2 mM sodium taurocholate. Compounds were added at the indicated concentrations 3 h after monolayer infection. After incubation (37° C., 5% CO2) for 48 h, the cells were washed three times with PBS containing 111 mM D-Galactose and fixed by adding an equal volume of 8% formaldehyde in PBS. Cell monolayers were then prepared for microscopy by permeabilizing with 0.1% Triton X-100, washing three times with PBS with 0.1% Tween 20, blocking with 4% bovine serum albumin (BSA) in PBS for 2 h at 37° C. or 4° C. overnight, and staining parasitophorous vacuoles with 1.33 μg·mL^−1 of fluorescein-labeled Vicia villosa lectin (Vector Laboratories) diluted in 1% BSA in PBS with 0.1% Tween 20 for 1 h at 37° C. DNA was then stained by adding Hoechst 33258 (AnaSpec) at a final concentration of 0.09 mM diluted in water, followed by washing five times with PBS containing 0.1% Tween 20. Images were acquired using a Nikon Eclipse TE2000 epifluorescence microscope with an automated stage that was programmed using NIS-Elements Advanced Research software (Nikon) to focus on the center of each well and take a 3×3 composite image using an EXi Blue fluorescence microscopy camera (QImaging) with a 20× objective (numerical aperture 0.45). Nucleus and parasite images were exported separately as tif files and analyzed using NIH ImageJ and previously reported macros, and data analysis and graphing were done using GraphPad Prism software, version 6.01. […]

Data set [4] has as its system C. parvum mutant transgenic PheRS (mut482V). In words: microbe, parasite or virus in culture. The data set is classed as cell-based, Cryptosporidium parvum. As to the method: as §1, §2

By EC50 is commonly meant the concentration that produces a half-maximal response. In the case of `COc1ccc(NC(=O)N2CCCCN3[C@H](CN(C)C)[C@H](c4ccc(C#Cc5ccccc5)cc4)[C@@H]3C2)cc1` [Compound 11, (8R,9S,10S)-10-((dimethylamino)methyl)-N-(4-methoxyphenyl)-9-(4-(phenylethynyl)phenyl)-1,6-diazabicyclo[6.2.0]decane-6-carboxamide], the EC50 in data set [1] is 0.029 µM; in data set [3] (read-out: C. parvum (Iowa) (1% FBS) BGF EC50), 0.009 µM; in data set [3] (read-out: C. parvum (Iowa) (10% FBS) BGF EC50), 0.073 µM; in data set [3] (serum not given, read-out: C. parvum EC50), < 0.073 µM; in data set [4] (Cryptosporidium parvum, HCT-8, 48 h, read-out: EC50, mutant transgenic), 1.06 µM. Besides, the “oocyst shedding at follow-up for relapse” value in data set [2] (10 mg/kg every 24 h for 7 days, monitored an additional 14 days) is on record as “no oocyst shedding was observed”. In data set [2] (oral, 50 mg/kg every 24 h for 4 days), the “log reduction in oocysts·mg^−1 stool” value was ~3 log. Further, the “reduction in oocyst shedding (oocysts per mg feces)” value in data set [2] (oral, 50 mg/kg every 24 h for 4 days, 50 mg/kg) is on record as “significant reduction in oocyst shedding; also recorded: greatest reduction in oocysts”. In data set [4], the “fold shift in EC50, mutant transgenic vs wild type transgenic” value is recorded as 23 fold.
